From patent US20220062296A1, “COMBINATIONS OF GABAA ALPHA 5 AGONISTS AND SV2A INHIBITORS AND METHODS OF USING IN THE TREATMENT OF COGNITIVE IMPAIRMENT” (AGENEBIO, INC., priority 2020, published 2022)

Assays:
Format in all cases: in vivo, rat
aged-impaired rats [1] = test: Radial arm maze with 5-hr delay, acute Compound 1 via PO; conditions: Compound 1 10 mg/kg PO, vs vehicle
Method: Food-deprived aged rats maintained at approximately 85% free-feeding weights were tested for their hippocampal-dependent memory in a radial arm maze task under varying doses of Compound 1 (a GABAA α5 receptor agonist):
The radial arm maze apparatus used consisted of eight equidistantly spaced arms. An elevated maze arm (7 cm width×75 cm length) projected from each facet of an octagonal center platform (30 cm diameter, 51.5 cm height). Clear side walls on the arms were 10 cm high and are angled at 65° to form a trough. A food well (4 cm diameter, 2 cm deep) was located at the distal end of each arm. Froot Loops™ (Kellogg Company) were used as rewards. Blocks constructed of Plexiglass™ (30 cm height×12 cm width) could be positioned to prevent entry to any arm. Numerous extra maze cues surrounding the apparatus were also provided. The rats were initially subjected to pre-training (Chappell et al., 1998). Pre-training consisted of a habituation phase, a training phase on the standard win-shift task and another training phase in which a progressively longer delay was imposed between presentation of a subset of arms designated by the experimenter (five arms available and three arms blocked) and completion of the eight-arm win-shift task (i.e., with all eight arms available).
In the habituation phase, rats were familiarized to the maze for a 10-minute session on several days. […]

aged-impaired rats [2] = test: Water maze probe test, acute and chronic Compound 1
Excerpt: Rats were trained and tested in a novel water maze environment to assess the effect of the treatments. The water maze used here was housed in a different room and was surrounded by curtains with a novel set of patterns relative to the maze used for initial assessment of cognitive status. The training and testing protocol used was identical to the spatial learning-activated protocol described in Haberman et al., (2008, Proceedings of the National Academy of Sciences USA, 105, 10601-10606). The task required rats to swim to a […] escape platform at a fixed location in the presence of spatial cues for 8 training trials with an inter-trial interval of 8 min. An hour after the last training trial, rats were given a probe test in the absence of the escape platform (free swim) to assess the memory of the platform location as measured by time spent searching at the target location.
To assess the acute and chronic effects of Compound 1 treatment, rats received 15-16 days of drug injections with assessment on the water maze on the first day (acute effect) and last day (chronic effect) of treatment. Different surrounding spatial cues and escape location in the water maze were used for the initial and subsequent assessments. Compound 1 was given at 10 mg/kg using intraperitoneal injection (IP) at a volume of 1 ml/kg. […]

aged-impaired rats [3] = test: Radial arm maze, Compound 1 IP alone and in combination with levetiracetam

COCc1nnc2n1Cc1c(C#Cc3cnc(OC)s3)ncn1-c1ccc(Cl)cc1-2 [Compound 1]
number of errors in the radial arm maze (aged-impaired rats [1]): fewer errors | time in the target quadrant of the Morris Water Maze (aged-impaired rats [2]; acute, Compound 1 10 mg/kg IP (first day)): spent more time in the target quadrant | time in the target quadrant of the Morris Water Maze (aged-impaired rats [2]; chronic, Compound 1 10 mg/kg IP (last day of 15-16 days)): spent more time in the target quadrant | efficacy of Compound 1 on its own in the radial arm maze (aged-impaired rats [3]; 2.5 mg/kg IP): subtherapeutic | efficacy of Compound 1 on its own in the radial arm maze (aged-impaired rats [3]; 5 mg/kg IP): subtherapeutic
